This test concerns the target T1, SIRT1 (Homo sapiens, UniProt Q96EB6).
T1 sequence (Q96EB6 1-747): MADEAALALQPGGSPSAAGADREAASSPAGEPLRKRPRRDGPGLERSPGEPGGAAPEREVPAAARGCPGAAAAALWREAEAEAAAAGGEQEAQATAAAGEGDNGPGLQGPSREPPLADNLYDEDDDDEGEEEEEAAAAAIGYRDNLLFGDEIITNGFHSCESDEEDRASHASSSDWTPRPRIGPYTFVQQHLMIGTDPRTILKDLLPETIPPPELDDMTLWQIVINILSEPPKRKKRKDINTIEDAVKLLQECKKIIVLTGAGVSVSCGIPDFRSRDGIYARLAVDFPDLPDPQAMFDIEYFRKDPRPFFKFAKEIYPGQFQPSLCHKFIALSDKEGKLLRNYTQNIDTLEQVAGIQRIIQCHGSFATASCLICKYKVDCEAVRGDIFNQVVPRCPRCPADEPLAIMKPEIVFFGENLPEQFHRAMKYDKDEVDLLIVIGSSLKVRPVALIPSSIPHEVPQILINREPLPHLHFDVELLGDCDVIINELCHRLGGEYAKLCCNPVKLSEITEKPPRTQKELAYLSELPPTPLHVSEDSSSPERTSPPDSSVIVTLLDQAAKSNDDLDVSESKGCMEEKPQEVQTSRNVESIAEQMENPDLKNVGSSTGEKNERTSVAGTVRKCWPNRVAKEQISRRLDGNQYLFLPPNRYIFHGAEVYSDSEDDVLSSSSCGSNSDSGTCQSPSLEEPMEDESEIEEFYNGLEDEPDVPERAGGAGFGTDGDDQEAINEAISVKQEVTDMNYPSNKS
The test is described as follows: Trp mass spectrometry assay of SIRT1 activation. In kind it is biochemical. As to conditions: Trp peptide Ac-R-H-K-K(Ac)-W-NH2 0.5 μM, 120 μM βNAD+, 10 nM SIRT1, 25 min, 25° C.

Consider `Cc1ccc(-c2ncc3c(n2)N(C(=O)Nc2ccccn2)[C@H]2CCN3C2)cn1` [Example 4, (8S)-2-(6-methylpyridin-3-yl)-N-(pyridin-2-yl)-7,8-dihydro-5,8-methanopyrimido[4,5-b][1,4]diazepine-9(6H)-carboxamide], for which the “TRP Activity (EC1.5, concentration of compound required to increase SIRT1 activity by 50% over control)” value is recorded as “B (EC1.5 1-25 μM)”. Regarding `O=C(Nc1ncc(OC[C@@H](O)CO)cn1)N1c2nc(-c3cccc(C(F)(F)F)c3)ncc2N2CCC[C@H]1C2` [Example 93, (9S)—N-(5-((S)-2,3-dihydroxypropoxy)pyrimidin-2-yl)-2-(3-(trifluoromethyl)phenyl)-8,9-dihydro-6H-5,9-methanopyrimido[4,5-b][1,4]diazocine-10(7H)-carboxamide], the “TRP Activity (EC1.5, concentration of compound required to increase SIRT1 activity by 50% over control)” value is recorded as “B (EC1.5 1-25 μM)” and the “TRP MAX RESP (percent maximum fold activation relative to control)” value is reported as “A (Fold activation ≥150%)”. For `Cc1nc(-c2cccc(C(F)(F)F)c2)nc2c1N1CC[C@@H](C1)N2C(=O)Nc1cncc(OC[C@@H](O)CO)c1` [Example 46, (8S)—N-(5-((S)-2,3-dihydroxypropoxy)pyridin-3-yl)-4-methyl-2-(3-(trifluoromethyl)phenyl)-7,8-dihydro-5,8-methanopyrimido[4,5-b][1,4]diazepine-9(6H)-carboxamide], in that order: “B (EC1.5 1-25 μM)” and “A (Fold activation ≥150%)”.

The values are drawn from US20180319810A1, “SUBSTITUTED BRIDGED UREA ANALOGS AS SIRTUIN MODULATORS” (GlaxoSmithKline Intellectual Property (No.2) Limited, priority 2014, published 2018).
